# Laboratory results taken from ChEMBL document CHEMBL3600371, “Design and synthesis of imidazole N-H substituted amide prodrugs as inhibitors of hepatitis C virus replication” (Bioorg Med Chem Lett, 2015).
# What was measured:
# [1] = tested on: Hepatitis C virus; experiment: Antiviral activity against HCV genotype 1b replicon infected in human HuH7 cells assessed as inhibition of viral RNA replication by luciferase reporter assay; assay type: functional, organism-based, Hepacivirus hominis; conditions: Huh-7
# [2] = tested on: Hepatitis C virus; experiment: Antiviral activity against HCV genotype 1 in patient assessed as virological response rate; assay type: functional, Hepacivirus hominis
# [3] = tested on: Hepatitis C virus; experiment: microbe, parasite or virus in culture; conditions: JFH-1, Huh-7
# Description: Antiviral activity against HCV genotype 1b JFH-1 infected in human HuH7 cells assessed as inhibition of viral replication
# [4] = AUC (0 to 8 hrs) in Sprague-Dawley rat at 5 mg/kg, po; assay type: ADME, organism-based; design: time < 8 hr, dose 5 mg/kg, route oral; conditions: in vivo
# [5] = Cmax in Sprague-Dawley rat at 5 mg/kg, po; assay type: ADME, organism-based; design: dose 5 mg/kg, route oral; conditions: in vivo
# [6] = Tmax in Sprague-Dawley rat at 5 mg/kg, po; assay type: ADME, organism-based; conditions: in vivo
# [7] = tested on: Rattus norvegicus; experiment: Drug level in Sprague-Dawley rat treated with ((S,S)-5,5'-([1,1'-Biphenyl]-4,4'-diyl)bis(2-((S)-1-((S)-2-((methoxycarbonyl)amino)-3-methylbutanoyl)pyrrolidin-2-yl)-1H-imidazole-5,1-diyl))bis(2-oxoethane-2,1-diyl)diacetate at 5 mg/kg, po measured over 9 hrs; assay type: ADME, organism-based; conditions: in vivo
# [8] = Stability of the compound in water at pH 7; assay type: physicochemical; conditions: buffer
# [9] = Mean residence time in Sprague-Dawley rat at 5 mg/kg, po; assay type: ADME, organism-based; conditions: in vivo
# [10] = Stability of the compound in blood (unknown origin); assay type: ADME, tissue-based
# [11] = AUC (0 to infinity) in Sprague-Dawley rat at 5 mg/kg, po; assay type: ADME, organism-based; design: dose 5 mg/kg, route oral, time infinity; conditions: in vivo
# [12] = Stability of the compound in water at pH 2; assay type: physicochemical; conditions: buffer
# [13] = Half life in Sprague-Dawley rat at 5 mg/kg, po; assay type: ADME, organism-based; conditions: in vivo
# [14] = tested on: Rattus norvegicus; experiment: AUC (0 to 8 hrs) in Sprague-Dawley rat assessed as daclatasvir at 5 mg/kg, po; assay type: ADME, organism-based; design: time < 8 hr, dose 5 mg/kg, route oral; conditions: in vivo
# [15] = Half life in blood (unknown origin); assay type: ADME, tissue-based
# [16] = tested on: Rattus norvegicus; experiment: Cmax in Sprague-Dawley rat assessed as daclatasvir at 5 mg/kg, po; assay type: ADME, organism-based; design: dose 5 mg/kg, route oral; conditions: in vivo
# [17] = tested on: Rattus norvegicus; experiment: Mean residence time in Sprague-Dawley rat assessed as daclatasvir at 5 mg/kg, po; assay type: ADME, organism-based; conditions: in vivo
# [18] = tested on: Rattus norvegicus; experiment: AUC (0 to infinity) in Sprague-Dawley rat assessed as daclatasvir at 5 mg/kg, po; assay type: ADME, organism-based; design: dose 5 mg/kg, time infinity, route oral; conditions: in vivo
# [19] = tested on: Rattus norvegicus; experiment: Prodrug conversion in Sprague-Dawley rat assessed as formation of daclatasvir at 5 mg/kg, po measured over 9 hrs; assay type: ADME, organism-based; conditions: in vivo
# [20] = tested on: Rattus norvegicus; experiment: Tmax in Sprague-Dawley rat assessed as daclatasvir at 5 mg/kg, po; assay type: ADME, organism-based; conditions: in vivo
# [21] = tested on: Rattus norvegicus; experiment: Half life in Sprague-Dawley rat assessed as daclatasvir at 5 mg/kg, po; assay type: ADME, organism-based; conditions: in vivo
SMILES,EC50 [1],further results
COC(=O)N[C@H](C(=O)N1CCC[C@H]1c1ncc(-c2ccc(-c3ccc(-c4cnc([C@@H]5CCCN5C(=O)[C@@H](NC(=O)OC)C(C)C)n4C(=O)CCC4CCCCC4)cc3)cc2)n1C(=O)CCC1CCCCC1)C(C)C,124 nM,–
COC(=O)N[C@H](C(=O)N1CCC[C@H]1c1ncc(-c2ccc(-c3ccc(-c4cnc([C@@H]5CCCN5C(=O)[C@@H](NC(=O)OC)C(C)C)n4C(=O)C(C)(C)C)cc3)cc2)n1C(=O)C(C)(C)C)C(C)C,> 100000 nM,–
COC(=O)N[C@H](C(=O)N1CCC[C@H]1c1ncc(-c2ccc(-c3ccc(-c4cnc([C@@H]5CCCN5C(=O)[C@@H](NC(=O)OC)C(C)C)n4C(C)=O)cc3)cc2)n1C(C)=O)C(C)C,12 nM,–
NC(=O)c1ncn([C@@H]2O[C@H](CO)[C@@H](O)[C@H]2O)n1 [RIBAVIRIN],–,Activity [2]: <50%
CCCCCCC(=O)n1c(-c2ccc(-c3ccc(-c4cnc([C@@H]5CCCN5C(=O)[C@@H](NC(=O)OC)C(C)C)n4C(=O)CCCCCC)cc3)cc2)cnc1[C@@H]1CCCN1C(=O)[C@@H](NC(=O)OC)C(C)C,542 nM,–
CCCCC(=O)n1c(-c2ccc(-c3ccc(-c4cnc([C@@H]5CCCN5C(=O)[C@@H](NC(=O)OC)C(C)C)n4C(=O)CCCC)cc3)cc2)cnc1[C@@H]1CCCN1C(=O)[C@@H](NC(=O)OC)C(C)C,231 nM,–
COC(=O)N[C@H](C(=O)N1CCC[C@H]1c1ncc(-c2ccc(-c3ccc(-c4cnc([C@@H]5CCCN5C(=O)[C@@H](NC(=O)OC)C(C)C)n4C(=O)OC)cc3)cc2)n1C(=O)OC)C(C)C,> 100000 nM,–
COC(=O)N[C@H](C(=O)N1CCC[C@H]1c1ncc(-c2ccc(-c3ccc(-c4cnc([C@@H]5CCCN5C(=O)[C@@H](NC(=O)OC)C(C)C)n4C(=O)CC(C)CC(C)(C)C)cc3)cc2)n1C(=O)CC(C)CC(C)(C)C)C(C)C (some centres not stated),> 100000 nM,–
COC(=O)N[C@H](C(=O)N1CCC[C@H]1c1nc(-c2ccc(-c3ccc(-c4c[nH]c([C@@H]5CCCN5C(=O)[C@@H](NC(=O)OC)C(C)C)n4)cc3)cc2)c[nH]1)C(C)C,–,EC50 [3]: 0.028 nM; AUC(0-t) at 8 h [4]: 3.21 µg·h/mL; Cmax [5]: 0.484 µg/mL; Tmax [6]: 3.01 h; Drug metabolism [7]: metabolite_detected; Stability [8]: Stable; MRT [9]: 3.43 h; Stability [10]: Stable; AUC(0-inf) [11]: 3.32 µg·h/mL; Stability [12]: Stable; half-life [13]: 1.66 h
COC(=O)N[C@H](C(=O)N1CCC[C@H]1c1ncc(-c2ccc(-c3ccc(-c4cnc([C@@H]5CCCN5C(=O)[C@@H](NC(=O)OC)C(C)C)n4C(=O)c4ccc(C)cc4)cc3)cc2)n1C(=O)c1ccc(C)cc1)C(C)C,231 nM,–
CCCOC(=O)n1c(-c2ccc(-c3ccc(-c4cnc([C@@H]5CCCN5C(=O)[C@@H](NC(=O)OC)C(C)C)n4C(=O)OCCC)cc3)cc2)cnc1[C@@H]1CCCN1C(=O)[C@@H](NC(=O)OC)C(C)C,> 100000 nM,–
COC(=O)N[C@H](C(=O)N1CCC[C@H]1c1ncc(-c2ccc(-c3ccc(-c4cnc([C@@H]5CCCN5C(=O)[C@@H](NC(=O)OC)C(C)C)n4C(=O)COC(C)=O)cc3)cc2)n1C(=O)COC(C)=O)C(C)C,0.08 nM,Stability [8]: Stable; AUC [14]: 3.33 µg·h/mL; half-life [15]: < 0.5 h; Cmax [16]: 0.341 µg/mL; MRT [17]: 4.01 h; AUC [18]: 3.44 µg·h/mL; Drug metabolism [19]: metabolite_detected; Tmax [20]: 4.05 h; t1/2 [21]: 2.93 h; Stability [12]: Stable
CCOC(=O)n1c(-c2ccc(-c3ccc(-c4cnc([C@@H]5CCCN5C(=O)[C@@H](NC(=O)OC)C(C)C)n4C(=O)OCC)cc3)cc2)cnc1[C@@H]1CCCN1C(=O)[C@@H](NC(=O)OC)C(C)C,> 100000 nM,–
CCCCCC(=O)n1c(-c2ccc(-c3ccc(-c4cnc([C@@H]5CCCN5C(=O)[C@@H](NC(=O)OC)C(C)C)n4C(=O)CCCCC)cc3)cc2)cnc1[C@@H]1CCCN1C(=O)[C@@H](NC(=O)OC)C(C)C,324 nM,–
COC(=O)N[C@H](C(=O)N1CCC[C@H]1c1ncc(-c2ccc(-c3ccc(-c4cnc([C@@H]5CCCN5C(=O)[C@@H](NC(=O)OC)C(C)C)n4C(=O)CC4CCCCC4)cc3)cc2)n1C(=O)CC1CCCCC1)C(C)C,110 nM,–
COC(=O)N[C@H](C(=O)N1CCC[C@H]1c1ncc(-c2ccc(-c3ccc(-c4cnc([C@@H]5CCCN5C(=O)[C@@H](NC(=O)OC)C(C)C)n4C(=O)Cc4ccccc4)cc3)cc2)n1C(=O)Cc1ccccc1)C(C)C,687 nM,–
COC(=O)N[C@H](C(=O)N1CCC[C@H]1c1ncc(-c2ccc(-c3ccc(-c4cnc([C@@H]5CCCN5C(=O)[C@@H](NC(=O)OC)C(C)C)n4C(=O)OC(C)(C)C)cc3)cc2)n1C(=O)OC(C)(C)C)C(C)C,> 100000 nM,–
COC(=O)N[C@H](C(=O)N1CCC[C@H]1c1ncc(-c2ccc(-c3ccc(-c4cnc([C@@H]5CCCN5C(=O)[C@@H](NC(=O)OC)C(C)C)n4C(=O)c4ccc(Cl)cc4)cc3)cc2)n1C(=O)c1ccc(Cl)cc1)C(C)C,77 nM,–
COC(=O)N[C@H](C(=O)N1CCC[C@H]1c1ncc(-c2ccc(-c3ccc(-c4cnc([C@@H]5CCCN5C(=O)[C@@H](NC(=O)OC)C(C)C)n4C(=O)OCC(C)=O)cc3)cc2)n1C(=O)OCC(C)=O)C(C)C,> 100000 nM,–
COC(=O)N[C@H](C(=O)N1CCC[C@H]1c1ncc(-c2ccc(-c3ccc(-c4cnc([C@@H]5CCCN5C(=O)[C@@H](NC(=O)OC)C(C)C)n4C(=O)CCC4CCCC4)cc3)cc2)n1C(=O)CCC1CCCC1)C(C)C,195 nM,–
CCC(=O)n1c(-c2ccc(-c3ccc(-c4cnc([C@@H]5CCCN5C(=O)[C@@H](NC(=O)OC)C(C)C)n4C(=O)CC)cc3)cc2)cnc1[C@@H]1CCCN1C(=O)[C@@H](NC(=O)OC)C(C)C,39 nM,–
COC(=O)N[C@H](C(=O)N1CCC[C@H]1c1ncc(-c2ccc(-c3ccc(-c4cnc([C@@H]5CCCN5C(=O)[C@@H](NC(=O)OC)C(C)C)n4C(=O)OC(C)C)cc3)cc2)n1C(=O)OC(C)C)C(C)C,> 100000 nM,–
COC(=O)N[C@H](C(=O)N1CCC[C@H]1c1ncc(-c2ccc(-c3ccc(-c4cnc([C@@H]5CCCN5C(=O)[C@@H](NC(=O)OC)C(C)C)n4C(=O)CC(C)(C)C)cc3)cc2)n1C(=O)CC(C)(C)C)C(C)C,> 100000 nM,–
COC(=O)N[C@H](C(=O)N1CCC[C@H]1c1ncc(-c2ccc(-c3ccc(-c4cnc([C@@H]5CCCN5C(=O)[C@@H](NC(=O)OC)C(C)C)n4C(=O)CCc4ccccc4)cc3)cc2)n1C(=O)CCc1ccccc1)C(C)C,988 nM,–
COC(=O)N[C@H](C(=O)N1CCC[C@H]1c1ncc(-c2ccc(-c3ccc(-c4cnc([C@@H]5CCCN5C(=O)[C@@H](NC(=O)OC)C(C)C)n4C(=O)C(C)C)cc3)cc2)n1C(=O)C(C)C)C(C)C,131 nM,–
COC(=O)N[C@H](C(=O)N1CCC[C@H]1c1ncc(-c2ccc(-c3ccc(-c4cnc([C@@H]5CCCN5C(=O)[C@@H](NC(=O)OC)C(C)C)n4C(=O)c4ccccc4)cc3)cc2)n1C(=O)c1ccccc1)C(C)C,155 nM,–
CCCC(=O)n1c(-c2ccc(-c3ccc(-c4cnc([C@@H]5CCCN5C(=O)[C@@H](NC(=O)OC)C(C)C)n4C(=O)CCC)cc3)cc2)cnc1[C@@H]1CCCN1C(=O)[C@@H](NC(=O)OC)C(C)C,85 nM,–
